Results published in doi:10.1101/2021.04.08.439011v1 (biorxiv, 2021).
Like-named read-outs stand apart in the source and are kept apart here.

Tests used:
[1] = target: CSNK1A1 (Homo sapiens, UniProt P48729); details: 0.1 µM; binder
[2] = target: DAPK2 (Homo sapiens, UniProt Q9UIK4); details: 0.1 µM; binder
[3] = target: PAK4 (Homo sapiens, UniProt O96013); details: 0.1 µM; binder
[4] = target: NDR2 (Homo sapiens, UniProt Q9Y2H1); details: 0.1 µM; binder
[5] = target: ERK8 (Homo sapiens, UniProt Q8TD08); details: 0.1 µM; binder
[6] = target: ABL1(M351T) (Homo sapiens, UniProt P00519, M351T); details: phosphorylated; 0.1 µM; binder
[7] = target: YANK2 (Homo sapiens, UniProt Q9NY57); details: 0.1 µM; binder
[8] = target: MTOR (Homo sapiens, UniProt P42345); details: 0.1 µM; binder
[9] = target: CDK3 (Homo sapiens, UniProt Q00526); details: 0.1 µM; binder
[10] = target: STK4 (Homo sapiens, UniProt Q13043); details: 0.1 µM; binder
[11] = target: BTK (Homo sapiens, UniProt Q06187); details: 0.1 µM; binder
[12] = target: GRK4 (Homo sapiens, UniProt P32298); details: 0.1 µM; binder
[13] = target: MET (Homo sapiens, UniProt P08581); details: 0.1 µM; binder
[14] = target: NDR1 (Homo sapiens, UniProt Q15208); details: 0.1 µM; binder
[15] = target: TRKA (Homo sapiens, UniProt P04629); details: 0.1 µM; binder
[16] = target: IRAK1 (Homo sapiens, UniProt P51617); details: 0.1 µM; binder
[17] = target: CSNK1G3 (Homo sapiens, UniProt Q9Y6M4); details: 0.1 µM; binder
[18] = target: KIT (Homo sapiens, UniProt P10721); details: 0.1 µM, binder
[19] = target: TXK (Homo sapiens, UniProt P42681); details: 0.1 µM; binder
[20] = target: DRAK1 (Homo sapiens, UniProt Q9UEE5); details: 0.1 µM; binder
[21] = target: FGFR3 (Homo sapiens, UniProt P22607); details: 0.1 µM; binder
[22] = target: KIT(V559D,V654A) (Homo sapiens, UniProt P10721, V559D/V654A); details: 0.1 µM; binder
[23] = target: CDC2L5 (Homo sapiens, UniProt Q14004); details: 0.1 µM; binder
[24] = target: WNK1 (Homo sapiens, UniProt Q9H4A3); details: 0.1 µM; binder
[25] = target: MARK4 (Homo sapiens, UniProt Q96L34); details: 0.1 µM; binder
[26] = target: CIT (Homo sapiens, UniProt O14578); details: 0.1 µM; binder
[27] = target: PLK3 (Homo sapiens, UniProt Q9H4B4); details: 0.1 µM; binder
[28] = target: PRKCI (Homo sapiens, UniProt P41743); details: 0.1 µM; binder
[29] = target: GSK3A (Homo sapiens, UniProt P49840); details: 0.1 µM; binder
[30] = target: CAMK1D (Homo sapiens, UniProt Q8IU85); details: 0.1 µM; binder
[31] = target: ACVR2B (Homo sapiens, UniProt Q13705); details: 0.1 µM; binder

Chain of KIT (P10721 whole entry): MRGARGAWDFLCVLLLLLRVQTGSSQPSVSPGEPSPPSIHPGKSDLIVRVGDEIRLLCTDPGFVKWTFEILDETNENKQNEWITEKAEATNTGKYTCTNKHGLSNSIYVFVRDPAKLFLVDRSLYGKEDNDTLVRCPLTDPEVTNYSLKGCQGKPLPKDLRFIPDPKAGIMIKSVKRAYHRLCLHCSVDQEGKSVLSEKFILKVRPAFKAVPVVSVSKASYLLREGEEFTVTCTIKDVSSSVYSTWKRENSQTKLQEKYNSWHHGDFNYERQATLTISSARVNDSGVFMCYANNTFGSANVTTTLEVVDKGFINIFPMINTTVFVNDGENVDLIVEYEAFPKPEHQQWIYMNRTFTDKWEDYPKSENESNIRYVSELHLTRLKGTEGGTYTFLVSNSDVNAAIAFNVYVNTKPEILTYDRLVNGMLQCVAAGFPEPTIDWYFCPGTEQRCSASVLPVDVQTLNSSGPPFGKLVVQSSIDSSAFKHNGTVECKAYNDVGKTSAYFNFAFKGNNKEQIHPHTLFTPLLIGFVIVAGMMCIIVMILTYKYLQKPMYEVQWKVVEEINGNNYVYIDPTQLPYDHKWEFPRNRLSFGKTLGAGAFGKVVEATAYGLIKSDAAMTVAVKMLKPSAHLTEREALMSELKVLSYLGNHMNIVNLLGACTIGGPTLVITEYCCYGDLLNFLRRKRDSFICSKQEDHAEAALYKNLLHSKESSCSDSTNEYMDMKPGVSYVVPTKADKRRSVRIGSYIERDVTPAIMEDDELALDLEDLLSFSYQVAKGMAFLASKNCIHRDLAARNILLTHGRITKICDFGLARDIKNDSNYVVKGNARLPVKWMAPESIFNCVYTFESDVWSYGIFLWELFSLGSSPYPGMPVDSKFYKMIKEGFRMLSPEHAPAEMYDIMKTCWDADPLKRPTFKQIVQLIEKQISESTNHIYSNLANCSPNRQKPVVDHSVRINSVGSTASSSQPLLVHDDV
Chain of ERK8 (Q8TD08 whole entry): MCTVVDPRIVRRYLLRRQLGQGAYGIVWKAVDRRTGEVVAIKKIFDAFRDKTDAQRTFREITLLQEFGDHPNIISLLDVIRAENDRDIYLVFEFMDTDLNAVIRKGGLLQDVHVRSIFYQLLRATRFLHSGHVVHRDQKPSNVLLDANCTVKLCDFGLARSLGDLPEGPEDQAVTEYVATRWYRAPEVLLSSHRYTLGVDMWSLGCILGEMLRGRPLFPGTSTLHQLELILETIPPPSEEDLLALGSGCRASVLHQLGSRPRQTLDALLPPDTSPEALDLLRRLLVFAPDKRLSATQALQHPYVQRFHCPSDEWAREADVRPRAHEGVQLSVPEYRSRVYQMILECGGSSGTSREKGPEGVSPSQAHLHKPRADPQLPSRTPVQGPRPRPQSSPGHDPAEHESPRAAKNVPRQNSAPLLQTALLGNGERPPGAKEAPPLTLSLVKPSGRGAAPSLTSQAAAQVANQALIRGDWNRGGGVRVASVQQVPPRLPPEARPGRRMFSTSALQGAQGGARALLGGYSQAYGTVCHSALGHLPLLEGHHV
Chain of TRKA (P04629 whole entry): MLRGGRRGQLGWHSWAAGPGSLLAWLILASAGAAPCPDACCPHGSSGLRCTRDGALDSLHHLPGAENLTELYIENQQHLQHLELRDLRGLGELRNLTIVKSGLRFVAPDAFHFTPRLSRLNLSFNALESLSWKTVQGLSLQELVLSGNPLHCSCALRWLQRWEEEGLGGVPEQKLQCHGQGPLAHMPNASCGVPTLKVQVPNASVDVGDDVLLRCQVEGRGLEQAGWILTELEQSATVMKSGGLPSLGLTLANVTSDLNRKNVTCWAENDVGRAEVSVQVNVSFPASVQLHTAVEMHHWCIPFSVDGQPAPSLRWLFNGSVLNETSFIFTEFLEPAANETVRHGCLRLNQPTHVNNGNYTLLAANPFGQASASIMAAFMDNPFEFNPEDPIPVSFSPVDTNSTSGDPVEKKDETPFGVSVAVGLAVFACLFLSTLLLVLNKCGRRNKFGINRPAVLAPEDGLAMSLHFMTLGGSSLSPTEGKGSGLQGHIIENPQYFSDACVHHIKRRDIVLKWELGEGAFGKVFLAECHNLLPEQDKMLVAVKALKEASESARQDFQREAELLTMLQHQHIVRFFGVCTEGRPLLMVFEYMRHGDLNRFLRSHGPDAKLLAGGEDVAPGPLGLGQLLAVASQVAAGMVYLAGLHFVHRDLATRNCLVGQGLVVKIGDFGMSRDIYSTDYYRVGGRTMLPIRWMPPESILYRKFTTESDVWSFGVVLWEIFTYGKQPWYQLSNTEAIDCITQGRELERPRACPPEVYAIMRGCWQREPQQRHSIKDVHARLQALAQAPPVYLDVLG
Chain of FGFR3 (P22607 whole entry): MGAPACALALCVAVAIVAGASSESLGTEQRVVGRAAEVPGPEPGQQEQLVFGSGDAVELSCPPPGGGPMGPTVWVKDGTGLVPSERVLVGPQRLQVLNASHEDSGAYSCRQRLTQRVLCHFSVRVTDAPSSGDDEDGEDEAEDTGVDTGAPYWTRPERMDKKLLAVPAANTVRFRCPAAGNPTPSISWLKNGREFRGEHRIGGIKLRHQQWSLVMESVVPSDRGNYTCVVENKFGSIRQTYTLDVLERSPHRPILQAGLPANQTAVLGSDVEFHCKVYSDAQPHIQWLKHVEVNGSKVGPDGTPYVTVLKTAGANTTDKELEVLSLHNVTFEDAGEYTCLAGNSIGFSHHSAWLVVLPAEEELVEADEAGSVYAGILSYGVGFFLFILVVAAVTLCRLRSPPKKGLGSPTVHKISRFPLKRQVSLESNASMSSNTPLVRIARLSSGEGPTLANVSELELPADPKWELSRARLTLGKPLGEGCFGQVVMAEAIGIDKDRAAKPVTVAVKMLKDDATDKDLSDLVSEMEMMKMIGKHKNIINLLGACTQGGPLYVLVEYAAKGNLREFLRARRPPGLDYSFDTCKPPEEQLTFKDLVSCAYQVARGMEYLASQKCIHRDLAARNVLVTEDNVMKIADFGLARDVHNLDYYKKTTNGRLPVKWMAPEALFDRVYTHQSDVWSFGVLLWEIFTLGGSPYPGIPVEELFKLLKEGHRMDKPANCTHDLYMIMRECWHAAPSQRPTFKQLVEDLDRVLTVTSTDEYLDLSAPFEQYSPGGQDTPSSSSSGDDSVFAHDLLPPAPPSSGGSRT
Chain of GRK4 (P32298 whole entry): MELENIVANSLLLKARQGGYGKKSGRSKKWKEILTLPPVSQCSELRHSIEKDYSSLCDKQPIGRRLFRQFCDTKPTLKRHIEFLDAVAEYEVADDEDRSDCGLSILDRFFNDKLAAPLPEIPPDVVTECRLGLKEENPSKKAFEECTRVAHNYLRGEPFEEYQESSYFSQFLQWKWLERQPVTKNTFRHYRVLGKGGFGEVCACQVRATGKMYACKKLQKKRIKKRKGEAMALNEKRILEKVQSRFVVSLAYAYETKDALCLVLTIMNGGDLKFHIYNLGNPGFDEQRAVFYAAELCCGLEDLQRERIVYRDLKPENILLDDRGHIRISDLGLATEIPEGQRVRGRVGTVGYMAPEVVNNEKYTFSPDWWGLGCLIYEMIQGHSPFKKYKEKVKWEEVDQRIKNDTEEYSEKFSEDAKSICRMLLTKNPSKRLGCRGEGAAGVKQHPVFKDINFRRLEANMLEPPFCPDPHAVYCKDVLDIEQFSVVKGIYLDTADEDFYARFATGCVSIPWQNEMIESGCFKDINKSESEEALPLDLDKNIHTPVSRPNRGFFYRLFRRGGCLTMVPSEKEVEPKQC
Chain of NDR2 (Q9Y2H1 whole entry): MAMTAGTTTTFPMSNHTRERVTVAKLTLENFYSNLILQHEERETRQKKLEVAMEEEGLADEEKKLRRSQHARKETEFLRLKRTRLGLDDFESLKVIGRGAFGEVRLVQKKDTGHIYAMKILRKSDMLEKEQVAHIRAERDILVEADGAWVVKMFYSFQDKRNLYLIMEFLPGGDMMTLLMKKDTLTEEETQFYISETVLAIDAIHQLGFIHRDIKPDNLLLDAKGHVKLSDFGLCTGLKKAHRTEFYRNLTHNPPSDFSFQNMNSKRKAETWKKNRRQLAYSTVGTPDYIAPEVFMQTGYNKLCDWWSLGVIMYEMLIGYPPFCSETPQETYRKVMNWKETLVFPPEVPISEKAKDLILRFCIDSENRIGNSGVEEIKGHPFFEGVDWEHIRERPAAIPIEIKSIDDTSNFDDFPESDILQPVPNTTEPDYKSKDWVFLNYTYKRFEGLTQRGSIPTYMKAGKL
Chain of PAK4 (O96013 whole entry): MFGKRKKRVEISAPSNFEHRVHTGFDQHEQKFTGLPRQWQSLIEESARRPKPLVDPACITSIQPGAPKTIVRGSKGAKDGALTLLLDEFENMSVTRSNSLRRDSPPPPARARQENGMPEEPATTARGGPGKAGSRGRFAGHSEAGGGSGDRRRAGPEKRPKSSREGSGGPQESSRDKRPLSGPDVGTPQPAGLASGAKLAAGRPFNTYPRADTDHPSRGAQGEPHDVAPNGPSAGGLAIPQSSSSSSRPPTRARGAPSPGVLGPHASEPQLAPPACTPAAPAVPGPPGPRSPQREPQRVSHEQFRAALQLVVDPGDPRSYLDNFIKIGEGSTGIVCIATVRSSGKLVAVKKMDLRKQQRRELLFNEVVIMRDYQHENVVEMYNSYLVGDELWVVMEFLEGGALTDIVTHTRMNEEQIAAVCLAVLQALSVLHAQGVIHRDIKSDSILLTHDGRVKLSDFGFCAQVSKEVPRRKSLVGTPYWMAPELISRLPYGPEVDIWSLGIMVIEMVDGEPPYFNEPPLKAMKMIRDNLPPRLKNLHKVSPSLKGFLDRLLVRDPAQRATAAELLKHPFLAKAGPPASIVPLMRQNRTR
Chain of KIT(V559D,V654A) (P10721 whole entry V559D/V654A): as the sequence (P10721 whole entry) above, with V559D, V654A counted along it

## CNc1ncc2cc(-c3ccc(-c4cccc(C)n4)cc3Cl)c(=O)n(C[C@H]3OC[C@H](N)CO3)c2n1 [compound 6, G-5555]
[1]
  Percent Control: 100%
[2]
  Percent Control: 100%
[3]
  Percent Control: 100%
[4]
  Percent Control: 100%
[5]
  Percent Control: 100%
[6]
  Percent Control: 100%
[7]
  Percent Control: 3.5%
[8]
  Percent Control: 83%
[9]
  Percent Control: 100%
[10]
  Percent Control: 90%
[11]
  Percent Control: 87%
[12]
  Percent Control: 100%
[13]
  Percent Control: 89%
[14]
  Percent Control: 97%
[15]
  Percent Control: 77%
[16]
  Percent Control: 97%
[17]
  Percent Control: 100%
[18]
  Percent Control: 100%
[18]; autoinhibited
  Percent Control: 82%
[19]
  Percent Control: 100%
[20]
  Percent Control: 79%
[21]
  Percent Control: 100%
[22]
  Percent Control: 77%
[23]
  Percent Control: 79%
[24]
  Percent Control: 100%
[25]
  Percent Control: 100%
[26]
  Percent Control: 100%
[27]
  Percent Control: 86%
[28]
  Percent Control: 97%
[29]
  Percent Control: 100%
[30]
  Percent Control: 43%
[31]
  Percent Control: 100%
